Test results as given in US20250027930A1, “SMALL MOLECULES FOR REPROGRAMING ANTI-TUMOR IMMUNITY OF T CELLS” (THE SCRIPPS RESEARCH INSTITUTE, priority 2021, published 2025).

Key:
P14 cells = assay: P14 splenocyte in vitro activation, re-stimulation and expansion; type: cell-based, mouse; settings: 80 mM; for Fold of proliferation, Normalized to W/O: P14 cells
[1] = test system: MC38 TSA-reactive CD8+ TILs; assay: Rapid expansion of TSA-reactive CD8+ TILs from MC38 tumors; type: cell-based, mouse
Experimental: Sugars were added at the beginning or during the expansion of the TILs, and kept till the end of expansion. On expansion day 9, phenotypes of the expanded T cells were assessed, and the cells were used for adoptive transfer (FIG. 6E). For adoptive transfer, 0.5 million cells (B16-OVA or MC38) were inoculated subcutaneously on each mouse on day 0, Listeria monocytogenes-OVA (LM-OVA) infection 0.5 million CFU/mice on day 1, and blood analysis was recorded on day 7.

OVA-specific TILs = assay: In vivo expansion of expanded OVA-specific TILs after LM-OVA challenge; parameters: species or system mouse; settings: naïve mice; vs T cells expanded without added sugars
P14 CD8+ T cells = type: in vivo, mouse
OT-1 cells = assay: OT-I-Tcf7GFP splenocyte screen: proliferation and Tim3−TCF-1+ ratio; type: cell-based, mouse; settings: Day7, 80 mM
Experimental: Cell number was recorded on day 3 and day 7. On day 7, cells were stained with anti-CD8a (PerCP-Cy5.5) and anti-Tim3 (BV421) antibodies for flow cytometry or plate reader analysis.
Because TCF1 expression positively correlates with T cell stemness, the greater signal of EGFP a T cell expresses, the less differentiated the T cell is. Furthermore, if the compound also facilitates T cells proliferation, there would be more T cells per well in comparison to the untreated control. Therefore, a compound that not only maintains TCF-1 expression but also facilitates T cell growth would produce the strongest green fluorescence intensity. […] GlcA stands for glucuronic acid.

OT-I splenocytes = assay: OT-I splenocyte culture with KRAS (G12C) inhibitors 9/12 and analogues; type: cell-based, mouse; settings: added D0 at 5 uM or D3 at 5 uM or 10 uM, kept till day 7
Experimental: We performed additional studies to examine the observed activities of KRAS (G12C) inhibitors in modulating T cell properties. First, OT-I splenocytes were activated with OVA257-264 peptide (500 nM) for 3 days in the presence of 60 IU/mL IL-2 and cultured for another 7 days. Inhibitor 9 (i9) or inhibitor 12 (i12) was added on Day0 (D0) upon activation at 5 uM and the concentration was kept till day 7 or added on Day3 (D3) after activation at 5 uM or 10 uM and the concentration was kept till day 7 for analysis.
Other than inhibitors 9 and 12, we also tested activities of two analogues of these KRAS (G12C) inhibitors. The analogues, Z7 and Z6, are derived from Inhibitor 9 and Inhibitor 12, respectively. They have an alkynyl group for click reaction which is used for ABPP analysis to find the targets of the inhibitors (FIG. 18A). In the studies, OT-I splenocytes were activated with OVA257-264 peptide (500 nM) for 3 days in the presence of 60 IU/mL IL-2 and cultured for another 7 days. 5 uM […], i9, z6 or z7 were added on Day0 (DO) upon activation.
As noted above, Inhibitor 9 and Inhibitor 12 have a cysteine-reactive group ([…] and acrylamide) that allows covalent binding of i9 and i12 to a cysteine residue in proteins. We further tested two analogue compounds, ZT-1 and ZT-2, that are not capable of forming the covalent binding. […] Cell number was recorded on day 5 and day 7. […]

M8 tetramer+ CD8+ TILs = assay: Rapid expansion of M8 tetramer+ CD8+ TILs from MC38 tumors; type: cell-based, mouse; settings: 5 μM
Source text: We further observed that K-Ras(G12C) inhibitor 12 prevents the generation of terminally exhausted (PD-1^+, Tim-3^+) antigen-specific CD8^+ tumor infiltrating lymphocytes (TILs) and facilitates production of progenitor-like (Tpex, Tim-3^−, TCF-1^+) antigen-specific CD8^+ TILs during in vitro expansion. Specifically, to elucidate the ability of K-Ras(G12C) inhibitor 12 to modulate properties of tumor infiltrating lymphocytes (TILs) in vitro, we utilized an MC38 murine colonic cancer model. C57BL/6J (B6) mice were inoculated with MC38 cells. Tumors were grown for 14 days and then harvested. Antigen specific (H-2K^b-restricted MuLV p15E604-611-specific, henceforth M8 tetramer^+) CD8^+ TILs were isolated. M8 tetramer^+ CD8^+ TILs were subjected to rapid expansion. On day 1 of rapid expansion, TILs were added 1:100 with irradiated BALB/c splenocytes and incubated with 1500 IU/mL IL2 for proliferation, […] anti-CD3 (mouse) antibody for activation, and with or without K-Ras(G12C) inhibitor 12 (5 μM).

hPBMCs [2] = assay: Donor hPBMC expansion with irradiated feeder cells; type: cell-based, human; settings: 2 μM
anti-GD2 CAR-T cells = assay: Anti-GD2 CAR-T cell expansion with Inhibitor 9/12, phenotype and cell number; settings: Inhibitor 9 at 2 or 3 uM, Inhibitor 12 at 1 or 2 uM; day 15
CD8+ OT-I T cells = assay: OT-I splenocyte culture with K-Ras(G12C) inhibitors; type: cell-based, mouse; settings: 5 μM
hPBMCs [3] = assay: Donor hPBMC expansion with irradiated feeder cells; type: cell-based, human; settings: 2 μM; remark: listed apart in the source
Experimental: (FIG. 9A) Donor hPBMCs were activated twice with irradiated (50 Gy) feeder cell mixture, initially on day 0 and then similarly on day 6. […] (FIG. 9C) Gated CD8^+ hPBMCs were analyzed for the expression of inhibitory receptors Tim-3 and PD-1 (terminally exhausted phenotype downregulation not statistically significant in either donor). (FIG. 9D) the expression of Tim-3 and TCF-1. (FIG. 9E) the expression of CCR7 and CD45RA.
Donor hPBMC cells were co-cultured 1:1 with an irradiated (50 Gy) mixture of hPBMCs from five different donors (henceforth, feeder cells). Irradiation arrests cell division, yet these feeder cells retain the ability to provide extracellular secretions to help donor cells proliferate. Cytokine signaling and HLA mismatch provides for robust donor hPBMC activation. Donor hPBMCs were activated twice with the irradiated feeder cell mixture, initially on day 0 and then similarly on day 6 (FIG. 9A). Beginning on day 0, donor hPBMCs were continuously cultured with 300 IU/mL IL2 and with or without K-Ras(G12C) inhibitor 12 (2 μM) (FIG. 9A).

## OC[C@H]1O[C@@](CO)(O[C@H]2O[C@H](CO)[C@@H](O)[C@H](O)[C@H]2O)[C@@H](O)[C@@H]1O [Sucrose, sucrose]
P14 cells; Day6
  Fold of proliferation, Normalized to W/O: 1.80 fold
P14 cells; Day6, w/o 55.0
  Tim3^−TCF-1^+ ratio of CD8^+ T cells (%): 89.8%
P14 cells; Day9
  Fold of proliferation, Normalized to W/O: 2.85 fold
P14 cells; Day9, w/o 3.5
  Tim3^−TCF-1^+ ratio of CD8^+ T cells (%): 48.6%
[1]
  cell surface anti-CLA (Cutaneous Lymphocyte-associated Antigen) staining: significant increase
OVA-specific TILs
  proliferation of transferred expanded cells after LM-OVA challenge: better proliferation
P14 CD8+ T cells; 7 dpi LCMV-Cl13, cells pre-treated in vitro, vs co-transferred untreated P14 cells
  percentages and total numbers of expanded virus-specific P14 CD8+ T cells in the blood: significantly higher
P14 CD8+ T cells; 14 dpi LCMV-Cl13, cells treated in vitro, vs untreated
  percentages and total numbers of expanded virus-specific P14 CD8+ T cells in the spleen and liver: significantly higher
OT-1 cells; w/o 2.6
  Tim3^−TCF-1^+ ratio of CD8^+ T cells (%): 41.2%
OT-1 cells; Mus musculus, Splenocyte, 168 h, OT-1 cells, read-out: Proliferation fold, Normalized to W/O
  activity at 80000 µM: 86%

## C=CC(=O)N1CCN(C(=O)CNc2cc(I)c(Cl)cc2O)CC1 [K-Ras(G12C) inhibitor 12]
OT-I splenocytes
  expression of inhibitory receptors (Tim-3+PD-1): decreased
M8 tetramer+ CD8+ TILs; day 8 post rapid expansion, untreated 79.4%
  CD8+ cells displaying the terminally exhausted phenotype (PD-1^+ Tim-3^+): 29.2%
M8 tetramer+ CD8+ TILs; day 8 post-expansion, pre-expansion 0.1×10^6, untreated 1.18×10^6, n=1
  cell expansion: 0.397×10^6 TILs
M8 tetramer+ CD8+ TILs; post-expansion, untreated 0.076%
  CD8^+ cells displaying the progenitor-like phenotype (Tim-3^−, TCF-1^+): 12.8%
hPBMCs [2]
  TEMRA (donor 3) or TEM (donor 4) CD4^+ hPBMCs: downregulated
  stem-like memory CD4^+ T cells (TSCM, CCR7^+, CD45RA^+): upregulated
hPBMCs [2]; day 13, donor 3, untreated 33.3%
  progenitor-like phenotype (Tim-3^−, TCF-1^+) CD4^+ hPBMCs: 78.4%
hPBMCs [2]; day 13, donor 4, untreated 14.7%
  terminally exhausted (PD-1^+, Tim-3^+) CD4^+ hPBMCs: 7.9%
hPBMCs [2]; day 13, donor 4, untreated 53.3%
  progenitor-like phenotype (Tim-3^−, TCF-1^+) CD4^+ hPBMCs: 78.7%
anti-GD2 CAR-T cells
  expression of inhibitory receptors (PD-1, LAG3, Tim-3 and CD39) of anti-GD2 CAR-T cells: decreased the expression of inhibitory receptors
  progenitor features of anti-GD2 CAR-T cells: increased progenitor features
CD8+ OT-I T cells; OT-I
  cell expansion: does not compromise cell expansion
CD8+ OT-I T cells; OT-I culture model
  generation of progenitor-like T cells: effectively promoted the generation of progenitor-like T cells
CD8+ OT-I T cells; day 5, untreated 23.8%
  terminally exhausted (PD-1^+, Tim-3^+) CD8^+ OT-I T cells: about 0.46%
CD8+ OT-I T cells; day 5, untreated 38.6%
  progenitor-like phenotype (Tim-3^−, TCF-1^+) CD8^+ OT-I T cells: 91.6%
hPBMCs [3]; day 13, donor 3, untreated 3.52%
  terminally exhausted (PD-1^+, Tim-3^+) CD8^+ hPBMCs: 2.6%
hPBMCs [3]; day 13, donor 3, untreated 15.7%
  terminally exhausted (PD-1^+, Tim-3^+) CD4^+ hPBMCs: 0.83%
hPBMCs [3]; day 13, donor 3, untreated 15.9%
  progenitor-like phenotype (Tim-3^−, TCF-1^+) CD8^+ hPBMCs: 51.5%
hPBMCs [3]; day 13, donor 4, untreated 5.01%
  terminally exhausted (PD-1^+, Tim-3^+) CD8^+ hPBMCs: 3.27%
hPBMCs [3]; day 13, donor 4, untreated 6.78%
  progenitor-like phenotype (Tim-3^−, TCF-1^+) CD8^+ hPBMCs: 39.7%
hPBMCs [3]; donor 3 and donor 4
  CD8^+ terminally differentiated effector memory cells (TEMRA, CCR7^−, CD45RA^+): downregulated
  stem-like memory CD8^+ T cells (TSCM, CCR7^+, CD45RA^+): produced less-differentiated stem-like memory CD8^+ T cells
hPBMCs [3]; hPBMCs from both donors
  mean cell expansion: no statistically significant compromise
